The source of these data is patent US12102633B2, “Spirolactone compounds” (Quixgen, Inc., priority 2017, dated 2024).

Data set [1] concerns T1, Mouse ACC (ACC protein purified from liver).
T1 construct: ACC protein was purified by taking advantage of the biotinylation in the carboxylase domain
Briefly: Mouse ACC enzymatic activity assay. The settings on record: read-out: EA-CoA mACC IC50. The data set is classed as biochemical. Put shortly: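 ACC affinity-purified from livers of male C57BL/6J mice (biotin-based capture), pre-incubated 10 min at 37 °C with compound. Reaction with 0.5 mM acetyl-CoA, 4.0 mM ATP, 15 mM 13C-NaHCO3, 0.5 mM citrate, pH 7.5, 1 h at 37 °C; malonyl-13C-CoA quantified by LC-MS/MS as pmoles/mg protein per minute.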

The nature of data set [2]: Standard PK in CD-1 mice (m-PK). The data set is classed as in vivo, mouse. The settings on record: for half-life / clearance: male; for half-life: CD-1, mouse, whole blood, read-out: m-PK T1/2 (converted); for clearance: CD-1, whole blood, 1 mg/kg IV, read-out: m-PK Cl; for clearance / m-PK F: mouse; for m-PK F: 5 mg/kg PO vs 1 mg/kg IV. The method, then:
Standard PK. Male catheterized CD-1 mice were treated with Compound 6 prepared in vehicle (5% DMSO+10% Solutol+85% PBS, PH=7.4) at doses of 1 mg/kg for IV (5 mL/kg) or 5 mg/kg for PO (10 mL/kg). Blood samples (20 VL) were collected at 0.083, 0.25, 0.5, 1, 2, 4, 8, and 24 hrs post dose and mixed with 60 VL 0.1 M sodium citrate. Upon extraction by using acetonitrile, blood concentrations of Compound 6 were quantitated by LC-MS/MS. PK parameters were calculated by using WinNonlin® 6.4.

Data set [3] is described as follows: Plasma protein binding (human). The data set is classed as in vitro ADME. The settings on record: % free, read-out: PPB (h/m) % free, human. As to the method:
The data in Table 5 were obtained by following the methods disclosed in this application and/or those standard techniques known in the art. ACC enzyme activities were measured according to Biological Examples 1 and 2; Malonyl-CoA in sebocytes were measured according to Biological Example 4; Effect on lipogenesis of 3T3-L1 adipocytes were measured according to Biological Example 7; Effect on lipogenesis of sebocytes were measured according to Biological Example 5; Effect on proliferation of sebocytes were measured according to Biological Example 6; Mouse PK were measured according to Biological Example 10; and Plasma protein binding (human or mouse) were measured by standard technique.

One may read the IC50 as the point on the concentration scale where inhibition reaches its midpoint. For the compound `COc1cc(C(=O)N2CCC3(CC2)Cc2ccc(C(C)C)cc2C(=O)O3)nc2c(OC)cccc12` [Example 2, 1′-(4,8-dimethoxyquinoline-2-carbonyl)-7-isopropylspiro[isochroman-3,4′-piperidin]-1-one], the half-inhibitory concentration (IC50) in data set [1] stood at 2.4 nM. Also, in data set [2], the half-life was 25.2 min, the clearance came out at 46.5 mL/min/kg and the “m-PK F” value is “F: 4.9%”. The fraction unbound in data set [3] came out at 0.0037.

As to `COc1cc(C(=O)N2CCC3(CC2)Cc2ccc(Nc4ccnn4C)cc2C(=O)O3)nc2c(OC)cccc12` [Example 6, 1′-(4,8-dimethoxyquinoline-2-carbonyl)-7-((1-methyl-1H-pyrazol-5-yl)amino)spiro[isochroman-3,4′-piperidin]-1-one], the IC50 in data set [1] turned out to be 0.34 nM. Further, in data set [2], the half-life was 30 min, the clearance came out at 15.2 mL/min/kg and the “m-PK F” value is given as “F: 53%”. Besides, in data set [3], the fraction unbound worked out at 0.0036.
